“Also recorded” adds a separate entry of the source.
What was measured:
[1] = biological target: T1, human CaSR (Homo sapiens, UniProt P41180); test: Intracellular Ca2+ (fura-2, F/F0) in HEK293 cells stably expressing human CaSR; format: cell-based; details: 100 nM calcilytic, HEK-CaSR
T1 construct: expressed in transfected cells; control HEK-0 with empty vector
T1 sequence (P41180 20-1078): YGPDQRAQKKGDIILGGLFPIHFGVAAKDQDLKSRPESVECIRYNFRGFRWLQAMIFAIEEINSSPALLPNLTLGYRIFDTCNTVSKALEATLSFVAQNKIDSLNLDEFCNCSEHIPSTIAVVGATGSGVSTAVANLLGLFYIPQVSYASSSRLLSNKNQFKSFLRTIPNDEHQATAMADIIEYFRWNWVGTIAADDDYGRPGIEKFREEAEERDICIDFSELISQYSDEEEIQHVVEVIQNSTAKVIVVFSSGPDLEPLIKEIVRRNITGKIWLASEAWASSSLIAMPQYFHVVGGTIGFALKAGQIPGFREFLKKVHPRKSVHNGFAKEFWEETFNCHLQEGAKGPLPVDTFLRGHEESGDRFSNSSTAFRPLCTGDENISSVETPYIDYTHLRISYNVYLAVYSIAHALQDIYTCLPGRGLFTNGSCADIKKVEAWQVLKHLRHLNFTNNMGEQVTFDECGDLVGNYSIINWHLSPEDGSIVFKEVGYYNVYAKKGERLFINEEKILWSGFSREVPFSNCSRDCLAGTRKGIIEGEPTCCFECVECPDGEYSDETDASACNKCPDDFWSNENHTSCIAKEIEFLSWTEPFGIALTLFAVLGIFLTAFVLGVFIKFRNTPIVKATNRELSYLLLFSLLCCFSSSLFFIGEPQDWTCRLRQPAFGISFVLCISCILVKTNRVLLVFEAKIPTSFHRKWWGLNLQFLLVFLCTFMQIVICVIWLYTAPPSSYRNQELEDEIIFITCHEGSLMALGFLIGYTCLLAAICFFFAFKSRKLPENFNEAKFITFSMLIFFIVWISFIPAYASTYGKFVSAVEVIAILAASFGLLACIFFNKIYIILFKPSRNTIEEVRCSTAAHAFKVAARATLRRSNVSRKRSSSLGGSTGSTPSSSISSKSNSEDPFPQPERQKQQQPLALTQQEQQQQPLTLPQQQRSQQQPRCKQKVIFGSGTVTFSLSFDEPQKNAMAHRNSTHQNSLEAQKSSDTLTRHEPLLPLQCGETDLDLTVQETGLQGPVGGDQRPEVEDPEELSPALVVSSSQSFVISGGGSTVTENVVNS
Experimental: The structurally unrelated calcilytic NPS2143 also prevents spermine-induced CaSR activation (D). […] Note that ECP serum concentrations in asthmatic subjects are believed to be 30 μg/ml. n=121-487 cells, 3-9 experiments. Data are mean±SEM. Where differences are significant, they are shown above the bars. FIG. 6. Ca^2+o activates the CaSR, an effect which can be prevented by the calcilytic NPS89636. HEK293 cells stably expressing the human CaSR (HEK-CaSR) or transfected with empty vector (HEK-0) were loaded with 4 μM fura-2 AM and exposed to 5 mM Ca^2+o in the absence or presence of the calcilytic, NPS89636 (100 nM). Data are from >3 experiments and 121-386 cells. Significant differences are shown above the bars. […] The ability of a structurally unrelated calcilytic, NPS2143 (1-10 μM), was also tested on spermine-induced Ca^2+i mobilisation in HEK-CaSR. Ca^2+i release was measured as peak/baseline fluorescence (F/F0). Note that ECP serum concentrations in asthmatic subjects increase with disease severity and are believed to reach 30 μg/ml.

[2] = test system: Dunkin-Hartley guinea pigs; test: Inflammatory cell infiltration in BALF of LPS-treated guinea pig model of COPD; format: in vivo; details: nebulised 3 micromolar, 30 min before LPS
Experimental: FIG. 15. The calcilytic NPS89636 reduces inflammatory cell infiltration detected in the bronchioalveolar lavage fluid (BALF) from guinea pigs with LPS-induced COPD. Male Dunkin-Hartley guinea pigs (500-550 g) were exposed to 30 micrograms/ml of nebulized lipopolysaccharide (LPS) in saline for 1 hour on alternate days for nine exposures. Animals received nebulised 3 micromolar NPS89636 (or 0.3% DMSO vehicle) for 9 days starting after exposure 5 for 30 min, 30 min before LPS exposure every other day. Animals were killed 24 hours after the ninth exposure (1.5 mL of Euthatal IP) and BALF was collected and cells were counted the same day as described in FIG. 14. Data are presented as mean±S.E.M. Significant differences between vehicle and calcilytic are indicated, p<0.05, n=6. […] For the total cell counts 100 microliters of the concentrated BALF from OVA-sensitised mice or 100 microliters of the diluted BALF from guinea pigs were applied to the Cytospin 3 Shandon cell smearing system (using glass slides from Thermo Scientific (BS7011/2; 0.8-1 mm, 76×26 mm) and filter paper from Thermo Scientific (5991022; Shandon filter cards) at 1000 rt/min for 7 minutes. The slides then were immersed into 1.5% […] stain in methanol for 6 min, then briefly washed in water twice. The slides were allowed to dry overnight, and the cells were counted using 100× oil immersion objective.

[3] = test system: mouse intralobular bronchi; test: Wire myography: effect of calcilytic on ACh-precontracted mouse intralobular bronchi; details: 300 nM or 3 micromolar; ACh 1 micromolar precontraction; WT mice
Experimental: Second/third order intralobular bronchi were dissected from the lung left lobe of WT or CaSR KO mice, mounted in small vessel myograph. Bronchi were gradually stretched to reach 2 mN of passive tension. After 30 min of equilibration time, the reactivity of the bronchi was tested by addition of 40 mM KCl to the bath. […] Data are shown as mean±SEM percentage change from baseline. […] Bronchi were left to settle at 37° C. for 30 min, then gradually stretched to reach 2 mN of passive tension. After 30 min of equilibration time, the reactivity of the bronchi was tested by addition of 40 mM KCl to the bath.

Effect of calcilytic on Ca2+i increase evoked by 5 mM Ca2+o [1]: blocked
SMILES: CCc1ccc(CC(C)(C)NCC(O)COc2cc(-c3ccc(C(=O)O)cc3)ccc2C#N)c(F)c1.Cl (stereo in doubt) [NPS89636, (S)-4′-cyano-3′-[3-[2-(4-ethyl-2-fluorophenyl)-1,1-dimethylethylamino]-2-hydroxy-propoxy]-biphenyl-4-carboxylic acid hydrochloride]
Effect of calcilytic on polycation-evoked Ca2+i release (F/F0) ([1]; 300 nM poly-L-arginine, 1 mM spermine or 10 μg/ml ECP, hydrochloride): completely eliminated; also recorded: significantly reduced
Effect on inflammatory cell infiltration (BALF), LPS-treated guinea pig [2]: a reduction in the inflammatory cell infiltration, especially of lymphocytes and neutrophils
Relaxation of acetylcholine-preconstricted intralobular bronchi [3]: mild relaxation

From patent US9861606B2, “Therapeutic for treating inflammatory lung disorders” (University College Cardiff Consultants Limited, priority 2012, dated 2018)
